The values below are quoted from earlier work in patent US20070297991A1, “NEURAL CONDUIT AGENT DIS[…] SMOKING CESSATION AND OTHER APPLICATIONS” (MINU, L.L.C., priority 2006, published 2007).

The structures appear in SMILES notation.

The conditions of this data set: in vivo.

As for `CN1CCCC1c1cccnc1` (stereo not shown) [nicotine], the plasma half-life result is reported as “approximately two”.
